In US20220091128A1, “SYSTEM AND METHOD FOR LIGAND THERMAL ANALYSIS” (Portland State University, priority 2019, published 2022):
Several values for one entry are separate records, joined by “and”; a condition that tells them apart may be missing. Equal values may be shown once. Read-outs that look alike come from different tables or passages of the source.

How the values were obtained:
HSA [1] = biological target: T1, HSA (Homo sapiens, UniProt P02768)
Protocol: (§1) Ligand solubilization: Stock solutions of aqueous insoluble ligands in organic solvents were pipetted into microcentrifuge tubes to yield a desired amount of drug for a 1 mL solution. The microcentrifuge tubes were placed into a vacuum concentrator (Savant SpeedVac Model SC100), and the organic solvents were evaporated, resulting in solid drug in the tube. To each tube, HSA is added at a predetermined concentration with standard buffer to provide a 1 mL working solution.
(§2) In total binding of 28 drug compounds to HSA was examined by obtaining thermograms.

human plasma = test: DSC thermograms of plasma with ligand; type: binding; conditions: plasma
HSA [2] = biological target: T1, HSA; parameters: purchased Sigma Aldrich (St. Louis, Mo.); conditions: cited from earlier work; for Kd: binding to HSA, read-out: Average Literature KD
HSA [3] = biological target: T1, HSA; test: Drug screening: HSA binding constants from DSC thermograms
Protocol: as §1, §2

biotinylated HSA (HSAB) = biotinylated HSA (HSAB) (Homo sapiens, UniProt P02768); test: DSC thermograms of biotinylated HSA (HSAB) with ligands; type: binding
Sequence of biotinylated HSA (HSAB) (P02768 25-609): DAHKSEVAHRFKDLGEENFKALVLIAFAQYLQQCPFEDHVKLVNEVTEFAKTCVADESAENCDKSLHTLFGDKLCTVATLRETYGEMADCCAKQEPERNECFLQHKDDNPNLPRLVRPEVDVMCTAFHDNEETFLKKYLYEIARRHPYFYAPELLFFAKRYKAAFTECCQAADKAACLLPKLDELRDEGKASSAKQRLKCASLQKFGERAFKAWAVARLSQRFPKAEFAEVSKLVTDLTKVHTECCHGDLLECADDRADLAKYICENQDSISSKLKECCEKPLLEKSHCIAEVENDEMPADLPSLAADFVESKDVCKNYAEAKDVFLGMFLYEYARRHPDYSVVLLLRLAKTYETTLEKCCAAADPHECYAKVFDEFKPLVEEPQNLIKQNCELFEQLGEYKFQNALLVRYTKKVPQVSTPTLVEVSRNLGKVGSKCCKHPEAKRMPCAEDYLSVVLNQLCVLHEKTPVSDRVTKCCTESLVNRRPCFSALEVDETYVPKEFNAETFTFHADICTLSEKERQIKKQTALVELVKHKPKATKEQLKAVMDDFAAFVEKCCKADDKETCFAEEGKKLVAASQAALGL

[4] = biological target: T2, human serum albumin (HSA) (Homo sapiens, UniProt P02768); test: Two-ligand (NAP + BCG) binding to standard HSA by DSC
T2 construct: purchased Sigma Aldrich (St. Louis, Mo.)
T2 sequence (P02768 25-609): as above

[5] = biological target: T2, human serum albumin (HSA); test: DSC thermograms of HSA with ligand (single-ligand titration); type: binding; conditions: for Binding Site stoichiometry / Implied number of sites: from dose response curves with HSA; for Tm / ΔG37^O / ΔHcal / ΔScal: thermal denaturation of HSA
Protocol: Chemicals and reagents: Plasma and highly pure plasma proteins are sourced from commercial suppliers. Standard reagents are sourced from commercial suppliers. Samples are prepared in standard phosphate-buffered saline (PBS) buffer. In some examples, human plasma and serum albumin were purchased from Sigma Aldrich (St. Louis, Mo.) and received as lyophilized powder. Plasma was product number: P9523, lot number: SLBT0202. […] In vivo, the standard state of HSA is most certainly bound to some extent by fatty acids. Plasma and HSA stock solutions were prepared by re-suspending the appropriate amount of powder in buffer. Samples were prepared by diluting stock solutions to a final concentration of 1.5-2.0 mg/mL.
Protein concentration was approximately 2 mg/ml.
In a DSC melting experiment, the supplemental power supplied to the sample cell (in μW) necessary to keep the sample temperature equal to the reference temperature is continually monitored. […] Supplemental power is directly related to the molar heat capacity at constant pressure, ΔCp. Curves of ΔCp versus T provide an evaluation of the thermodynamic enthalpy. To enable direct comparisons in some cases, power (μW) versus T plots (instead of ΔCp versus T curves) were used for the following reason.
Analysis of DSC data was performed using the Nanoanalyze software package, version 3.7.5, provided by T.A. Instruments. […]
From the thermograms, semi-quantitative evaluations of the thermodynamic parameters ΔHcal, ΔScal and ΔGcal(37° C.) were obtained at each ligand concentration.
These curves were constructed from titrations of DM1 with HSA. The Tm and ΔGcal(37° C.) were evaluated. The values were normalized against standard HSA and plotted versus ligand concentration to provide the dose curves in FIG. 20A (Tm) and FIG. 20B (ΔGcal(37° C.)).
Natural HSA samples were prepared at pH 6.0 and pH 8.0 and examined by DSC. […] From DSC melting curves thermodynamic parameters for HSA/ligand mixtures were evaluated.

[6] = after several days; cited from earlier work
[7] = ligand 22.5 μM (so in the source)

T1 sequence (P02768 25-609): as above

SMILES: CNC[C@H](O)[C@@H](O)[C@H](O)[C@H](O)CO.CNC[C@H](O)[C@@H](O)[C@H](O)[C@H](O)CO.O=C([O-])CN(CCN(CC(=O)[O-])CC(=O)O)CCN(CC(=O)[O-])CC(=O)O.[Gd+3] [Magnevist (MAG)]
- Measured HSA binding (cell spanning the measured KD columns; same in text) (HSA [1]): No Binding Detected

SMILES: O=C([O-])CN1CCN(CC(=O)[O-])CCN([C@H](CO)[C@H](O)CO)CCN(CC(=O)[O-])CC1.[Gd+3] [Gadavist (GAD)]
- Measured HSA binding (cell spanning the measured KD columns; same in text) (HSA [1]): No Binding Detected

SMILES: Cc1c(C2(c3cc(Br)c(O)c(Br)c3C)OS(=O)(=O)c3ccccc32)cc(Br)c(O)c1Br [BCG, bromocresol green]
- shift in Tm (human plasma; 100 μM ligand): about 7 °C
- enthalpy (ΔHcal) of plasma with ligand (human plasma; 100 μM ligand (FIG. 10A)): 141 kcal/mol
- major Tm peak of plasma shifted to (human plasma; 100 μM ligand (FIG. 10A)): 72 °C
- binding stoichiometry n on HSA (HSA [2]; NAP Sudlow site II, BCG Sudlow site I): 3
- Kd (HSA [2]): 1.43 µM
- Kd (HSA [3]; read-out: Average Measured KD; binding to HSA; single value or value marked 1)): 3.31 µM
- Kd (HSA [3]; read-out: Measured KD From TM; binding to HSA; single value or value marked 1)): 4.97 µM
- Kd (HSA [3]; read-out: Measured KD from ΔG^037; binding to HSA; single value or value marked 1)): 1.64 µM
- Binding Chemical Potentials (ΔG^O37) (biotinylated HSA (HSAB); HSAB 1:1 with 50 μM BCG, [NAP] 0 μM): 18.49 kcal/mol
- Binding Chemical Potentials (ΔG^O37) (biotinylated HSA (HSAB); HSAB 1:1 with 50 μM NAP, [BCG] 50 μM): 21.76 kcal/mol
- Binding Chemical Potentials (ΔG^O37) (biotinylated HSA (HSAB); HSAB 1:1 with 50 μM NAP, [BCG] 75 μM): 22.56 kcal/mol
- Binding Chemical Potentials (ΔG^O37) (biotinylated HSA (HSAB); HSAB 1:1 with 50 μM NAP, [BCG] 150 μM): 22.96 kcal/mol
- Binding Chemical Potentials (ΔG^O37) (biotinylated HSA (HSAB); HSAB 1:5 with 50 μM BCG, [NAP] 0 μM): 21.27 kcal/mol
- Binding Chemical Potentials (ΔG^O37) (biotinylated HSA (HSAB); HSAB 1:5 with 50 μM NAP, [BCG] 50 μM): 24.12 kcal/mol
- Binding Chemical Potentials (ΔG^O37) (biotinylated HSA (HSAB); HSAB 1:5 with 50 μM NAP, [BCG] 75 μM): 25.60 kcal/mol
- Binding Chemical Potentials (ΔG^O37) (biotinylated HSA (HSAB); HSAB 1:5 with 50 μM NAP, [BCG] 150 μM): 25.06 kcal/mol
- Binding Chemical Potentials (ΔG^O37) (biotinylated HSA (HSAB); HSAB 1:10 with 50 μM BCG, [NAP] 0 μM): 22.37 kcal/mol
- Binding Chemical Potentials (ΔG^O37) (biotinylated HSA (HSAB); HSAB 1:10 with 50 μM NAP, [BCG] 50 μM): 25.04 kcal/mol
- Binding Chemical Potentials (ΔG^O37) (biotinylated HSA (HSAB); HSAB 1:10 with 50 μM NAP, [BCG] 75 μM): 25.30 kcal/mol
- Binding Chemical Potentials (ΔG^O37) (biotinylated HSA (HSAB); HSAB 1:10 with 50 μM NAP, [BCG] 150 μM): 24.99 kcal/mol
- Binding Chemical Potentials (ΔG^O37) ([4]; HSA25BCG (HSA + 25 μM BCG), [NAP] 0 μM): 14.00 kcal/mol
- Binding Chemical Potentials (ΔG^O37) ([4]; HSA25NAP (pre-bound 25 μM NAP), [BCG] 50 μM): 18.33 kcal/mol
- Binding Chemical Potentials (ΔG^O37) ([4]; HSA25NAP (pre-bound 25 μM NAP), [BCG] 75 μM): 19.49 kcal/mol
- Binding Chemical Potentials (ΔG^O37) ([4]; HSA25NAP (pre-bound 25 μM NAP), [BCG] 150 μM): 19.61 kcal/mol
- Binding Chemical Potentials (ΔG^O37) ([4]; HSA50BCG (HSA + 50 μM BCG), [NAP] 0 μM): 15.13 kcal/mol
- Binding Chemical Potentials (ΔG^O37) ([4]; HSA50NAP (pre-bound 50 μM NAP), [BCG] 50 μM): 18.27 kcal/mol
- Binding Chemical Potentials (ΔG^O37) ([4]; HSA50NAP (pre-bound 50 μM NAP), [BCG] 75 μM): 18.47 kcal/mol
- Binding Chemical Potentials (ΔG^O37) ([4]; HSA50NAP (pre-bound 50 μM NAP), [BCG] 150 μM): 19.29 kcal/mol
- Binding Chemical Potentials (ΔG^O37) ([4]; HSA75BCG (HSA + 75 μM BCG), [NAP] 0 μM): 15.33 kcal/mol
- Binding Chemical Potentials (ΔG^O37) ([4]; HSA75NAP (pre-bound 75 μM NAP), [BCG] 50 μM): 19.51 kcal/mol
- Binding Chemical Potentials (ΔG^O37) ([4]; HSA75NAP (pre-bound 75 μM NAP), [BCG] 75 μM): 20.42 kcal/mol
- Binding Chemical Potentials (ΔG^O37) ([4]; HSA75NAP (pre-bound 75 μM NAP), [BCG] 150 μM): 21.08 kcal/mol
- Binding Chemical Potentials (ΔG^O37) ([4]; WT HSA with 50 μM BCG, [NAP] 0 μM): 15.19 kcal/mol
- Binding Chemical Potentials (ΔG^O37) ([4]; WT HSA with 50 μM NAP, [BCG] 50 μM): 18.38 kcal/mol
- Binding Chemical Potentials (ΔG^O37) ([4]; WT HSA with 50 μM NAP, [BCG] 75 μM): 18.74 kcal/mol
- Binding Chemical Potentials (ΔG^O37) ([4]; WT HSA with 50 μM NAP, [BCG] 150 μM): 19.86 kcal/mol
- increase of ΔGcal(37° C.) versus titration curve at pH 7.4 ([5]; HSA + ligand at pH 6.0, as much as): ~5 kcal/mol
- lowering of ΔGcal(37° C.) versus titration curve at pH 7.4 ([5]; HSA + ligand at pH 8.0): ~2 kcal/mol
- ΔHcal of HSA/ligand ([5]; HSA, 100 μM ligand (text, FIG. 10B)): 165.6 kcal/mol and 166 kcal/mol
- Binding Site stoichiometry [5]: 3
- Implied number of sites [5]: 6
- Tm ([5]; ligand 1 μM): 62.9 °C
- ΔG37^O ([5]; ligand 1 μM): 13.11 kcal/mol
- ΔHcal ([5]; ligand 1 μM): 170.12 kcal/mol
- ΔScal ([5]; ligand 1 μM): 506.23 cal/molK
- Tm ([5]; ligand 10 μM): 63.3 °C
- ΔG37^O ([5]; ligand 10 μM): 13.83 kcal/mol
- ΔHcal ([5]; ligand 10 μM): 176.99 kcal/mol
- ΔScal ([5]; ligand 10 μM): 526.08 cal/molK
- Tm [5, 7]: 70.8 °C
- ΔG37^O [5, 7]: 16.43 kcal/mol
- ΔHcal [5, 7]: 167.24 kcal/mol
- ΔScal [5, 7]: 486.25 cal/molK
- Tm ([5]; ligand 25 μM): 63.6 °C
- ΔG37^O ([5]; ligand 25 μM): 14.39 kcal/mol
- ΔHcal ([5]; ligand 25 μM): 182.05 kcal/mol
- ΔScal ([5]; ligand 25 μM): 540.59 cal/molK
- Tm ([5]; ligand 50 μM): 64.0 °C
- ΔG37^O ([5]; ligand 50 μM): 15.19 kcal/mol
- ΔHcal ([5]; ligand 50 μM): 189.75 kcal/mol
- ΔScal ([5]; ligand 50 μM): 562.81 cal/molK
- Tm ([5]; ligand 75 μM): 64.6 °C
- ΔG37^O ([5]; ligand 75 μM): 15.33 kcal/mol
- ΔHcal ([5]; ligand 75 μM): 187.76 kcal/mol
- ΔScal ([5]; ligand 75 μM): 555.95 cal/molK
- Tm ([5]; ligand 125 μM): 67.2 °C
- ΔG37^O ([5]; ligand 125 μM): 16.18 kcal/mol
- ΔHcal ([5]; ligand 125 μM): 182.33 kcal/mol
- ΔScal ([5]; ligand 125 μM): 535.71 cal/molK
- Tm ([5]; ligand 150 μM): 69.0 °C
- ΔG37^O ([5]; ligand 150 μM): 16.74 kcal/mol
- ΔHcal ([5]; ligand 150 μM): 178.84 kcal/mol
- ΔScal ([5]; ligand 150 μM): 522.66 cal/molK
- Tm ([5]; ligand 175 μM): 69.1 °C
- ΔG37^O ([5]; ligand 175 μM): 15.92 kcal/mol
- ΔHcal ([5]; ligand 175 μM): 169.77 kcal/mol
- ΔScal ([5]; ligand 175 μM): 496.04 cal/molK
- Tm ([5]; ligand 200 μM): 70.3 °C
- ΔG37^O ([5]; ligand 200 μM): 16.24 kcal/mol
- ΔHcal ([5]; ligand 200 μM): 167.42 kcal/mol
- ΔScal ([5]; ligand 200 μM): 487.44 cal/molK

SMILES: CCCCNc1ccc(C(=O)OCCN(C)C)cc1 [Tet, Tetracaine]
- effect on fibrinogen melting transition peak (52° C.) of the plasma thermogram (human plasma; 2 mg/mL ligand): slight change
- Tm where the HSA in plasma transition occurs (human plasma; 2 mg/mL ligand, control 62-64° C.): 63-65 °C
- Kd (HSA [2]): 59.8 µM
- Kd (HSA [3]; Average Measured KD, binding to HSA; single value or value marked 1)): 26.1 µM
- Kd (HSA [3]; Measured KD From TM, binding to HSA; single value or value marked 1)): 23.6 µM
- Kd (HSA [3]; Measured KD from ΔG^037, binding to HSA; single value or value marked 1)): 28.6 µM
- Binding Site stoichiometry [5]: 1
- Implied number of sites [5]: 1
- in vivo activity [6]: retained significant activity after several days
